{"source": "patent US20040029774A1", "about": "“Composition and methods for the treatment of musculoskeletal disorders and collagen and elastin deficiencies” (priority 2002, published 2004)", "key": {"[1]": {"assay": "Solubility of rejuvenating ingredients in acidified deionized water mimicking the stomach", "description": "In order to determine the amount of rejuvenating-nutrient that may be completely dissolved in water under conditions similar to that of stomach, the following study was executed: Deionized water was heated to 98° F.-99° F. to mimic the temperature of the human body. Adjustment of pH of the water to 2.7-2.9 was accomplished using hydrochloric acid to effect acidic conditions of the human stomach. […] Water/joints products were placed in a heated water bath with continuous agitation. Solubility of various joints products was compared at 30 minutes, one hour and two hours.\nThe following data reflect the percentage of product solubilized compared to added concentration at 0 minutes: […]"}, "[2]": {"conditions": "cited from earlier work"}}, "data": [{"molecule": "N[C@H]1C(O)O[C@H](CO)[C@@H](O)[C@@H]1O", "note": "(some centres unmarked) [GLUCOSAMINE, Glucosamine]", "values": [{"measurement": "% SOLUBILITY 2 HRS.", "setting": "[1]; 2 h, pH 2.7", "value": 30, "unit": "%"}]}, {"molecule": "CS(C)(=O)=O", "note": "[MSM, Methyl-Sulfonyl-Methane]", "values": [{"measurement": "% SOLUBILITY 1 HR.", "setting": "[1]; 1 h, pH 2.7", "value": 20, "unit": "%"}, {"measurement": "% SOLUBILITY 2 HRS.", "setting": "[1]; 2 h, pH 2.7", "value": 30, "unit": "%"}]}, {"molecule": "N[C@H]1C(O)O[C@H](CO)[C@@H](O)[C@@H]1O.O=S(=O)(O)O", "note": "(some centres unmarked) [glucosamine sulfate]", "values": [{"measurement": "Clinical improvement of symptoms, persistence", "setting": "[2]; after discontinuation of oral administration", "value": "up to four weeks"}, {"measurement": "Clinical improvement of symptoms, onset", "setting": "[2]; after oral administration", "value": "as early as one week"}]}, {"molecule": "Chondroitin sulfate", "values": [{"measurement": "% SOLUBILITY 30 MINS.", "setting": "[1]; 10% concentration, water 98-99° F., pH 2.7-2.9", "value": 100, "unit": "%"}, {"measurement": "% SOLUBILITY 30 MINS.", "setting": "[1]; 30% concentration, water 98-99° F., pH 2.7-2.9", "value": 100, "unit": "%"}, {"measurement": "% SOLUBILITY 30 MINS.", "setting": "[1]; 50% concentration, water 98-99° F., pH 2.7-2.9", "value": 100, "unit": "%"}, {"measurement": "soluble at 50% concentration", "setting": "[1]; 50% concentration, water 98-99° F., pH 2.7-2.9, time not given", "value": 100, "unit": "%"}, {"measurement": "% SOLUBILITY 30 MINS.", "setting": "[1]; 70% concentration, water 98-99° F., pH 2.7-2.9", "value": 20, "unit": "%"}, {"measurement": "% SOLUBILITY 1 HR.", "setting": "[1]; 70% concentration, water 98-99° F., pH 2.7-2.9, one hour", "value": 20, "unit": "%"}, {"measurement": "% SOLUBILITY 2 HRS.", "setting": "[1]; 70% concentration, water 98-99° F., pH 2.7-2.9, two hours", "value": 20, "unit": "%"}]}, {"molecule": "Gelatin", "values": [{"measurement": "% SOLUBILITY 1 HR.", "setting": "[1]; pH 2.7", "value": 10, "unit": "%"}, {"measurement": "% SOLUBILITY 2 HRS.", "setting": "[1]; pH 2.7", "value": 15, "unit": "%"}]}]}
